Measurements from patent US12377069B2, “Compounds, compositions, methods of using, and methods for preparing compounds” (UNIVERSITY OF LOUISVILLE RESEARCH FOUNDATION, INC., priority 2018, dated 2025).

Assays:
[1] = tested on: C57BL/6, Nrf2^−/− and AhR^−/− mice; test: Colon protein/mRNA expression after 7 days of oral treatment; assay type: in vivo, mouse; conditions: for AhR expression in colons of treated mice / Nrf2 and HO1 in the colons of wild type mice / expression of Cldn4 in the colons of mice: oral 20 mg/kg daily, 7 days; for Nrf2 and tight junction proteins (Cldn4, NQO1, Ocln, ZO1 and TJP3) in WT mice / Nrf2 and tight junction proteins in Nrf2^−/− and AhR^−/− mice: orally 20 mg/kg daily, seven days
Procedure: Immunoblots (Western blots): The total protein lysates were collected either from colon tissue/cells using radioimmunoprecipitation assay (RIPA) buffer (Sigma-Aldrich, USA) and quantified using BCA protein quantification kit (Thermo Scientific) as per instructional manual. Total protein (20-50 μg) of was resolved on NuPAGE™ 4-12% Bis-Tris gel (Novex Life technologies) and transferred to polyvinylidene difluoride membrane (0.22 μm pore; Millipore, USA). After blocking with 5% (w/v) skim milk powder (containing 1×TBS) for 1 h, the membrane was then incubated with respective antibodies at 4° C. overnight (dilutions of respective antibodies is given in Table A1). Next day, respective secondary antibody conjugated with Horseradish peroxidase were probed and the chemiluminescent substrate was used to detect the protein bands (ImageQuant LAS 4000). Densitometry analysis of bands were done using ImageJ software. Antibodies for Cldn4, Ocln, Cldn1, Cyp1A1, AhR, HO1, NQO1, Keap1, β-actin and Lamin B were purchased from Santa Cruz Biotechnologies (USA) and Nrf2 from Novus Biologicals (USA).
Tissue processing for RNA and protein analysis: Mice were treated with as described in results section. Mice were euthanized with CO2 asphyxiation followed by cervical dislocation. Colon was dissected out and luminal contents were flushed out with cold PBS (containing PMSF and Sodium orthvandate). Small portion of colon was snap frozen in liquid nitrogen and stored at −80° C. for RNA analysis. For preparation of protein samples, colon was opened longitudinally and mucosa was scraped in ice-cold 1×PBS using pre-chilled glass slide and centrifuged at 300×g for 10 min at 4° C. Supernatant was discarded and pellet was suspended in RIPA buffer (containing 1× protease inhibitor) and vortexed at high speed. After 30 min incubation on ice, samples were centrifuged at 13,000×g for 20 min at 4° C. Supernatant was collected and protein was quantified using BCA protein quantification kit. The lysates were used appropriately for Western blots.

C57BL/6 mice = test: TNBS-induced colitis; assay type: in vivo, mouse; conditions: for H&E analysis of colon sections / TNBS-induced body weight loss / TNBS-induced colon shortening / TNBS-induced downregulation of Cldn4 in colons / colon weight to length ratio / disease activity index (DAI) score / neutrophil infiltration (myeloperoxidase (MPO) activity) / serum inflammatory markers IL-6, TNF-α, CXCL1 and IL-10: oral 20 mg/kg at 12 h intervals; for loss of body weight, single treatment / TNBS-induced colitis, single treatment: single oral treatment at 4 or 20 mg/kg; for TNBS-induced colitis, single treatment: 12 h post TNBS
Procedure: 2,4,6-Trinitrobenzenesulfonic acid (TNBS)-induced colitis: Male C57BL/6 or Nrf2^−/− mice (6-8 week old age mice) were anesthetized with ketamine/xylazine (100 mg/12.5 mg/kg IP) mixture and administered with single dose of TNBS (2.5 mg/mice; Sigma Aldrich, USA) in 50% ethanol. After administration of TNBS, mice were held upside down for 30-60 sec to ensure proper distribution of TNBS in the colon. Control group received 50% ethanol without TNBS. Mice with TNBS were randomly divided into three groups, viz. vehicle (0.25% sodium carboxymethylcellulose (CMC)), UroA and UAS03. UroA or UAS03 was resuspended in 0.25% sodium-CMC at desired concentrations. The mice were given orally Veh or UroA or UAS03 in 100 μl at desired concentrations (4 or 20 mg/kg/body weight). The treatment started after 12 hours of TNBS administration and every 12 hours thereafter up to 72 hours. The experiment was terminated post 60 h TNBS, where AhR^−/− mice were involved. In some experiments, we treated only once at post 12 h TNBS administration. TNBS administered and control mice were euthanized for tissue and plasma collection after 80 hours of TNBS/ethanol treatment. Mice were examined for colitis phenotype.
Assessment of colitis severity and tissue collection: Mice were evaluated daily for change in body weight, stool consistency and rectal bleeding and score was given and combined to obtained disease activity index (MURTHY et al., (1993) “Treatment of dextran sulfate sodium-induced murine colitis by intracolonic cyclosporin” Dig Dis Sci, Vol. 38, pp. 1722-1734). After euthanasia, the colon was removed and flushed with PBS containing (1 mM PMSF and 0.2 mM sodium orthovanadate). Colon length and colon weight were measured and small parts of colon were excised for myeloperoxidase (MPO) activity and RNA isolation. Tissues for MPO and RNA extraction were snap frozen in liquid nitrogen and stored in −80° C. until further analysis. Tissue for histological examination was stored in 10% phosphate buffered saline formalin. Blood was collected and serum was separated by centrifugation at 3500×g for 15 min. Serum cytokines (IL-6, TNF-α; Biolegend) and chemokines (CXCL1; R&D Systems) levels were measured by ELISA according to manufacturer's instructions.
In vivo intestinal permeability assay: The gut barrier function was evaluated by in vivo intestinal permeability using FITC-Dextran (MW 4000; FD4, Sigma-Aldrich, USA) (FURUTA et al., (2001) “Hypoxia-inducible factor 1-dependent induction of intestinal trefoil factor protects barrier function during hypoxia” J Exp Med, Vol. 193, pp. 1027-1034). Briefly, mice were orally administered with FITC-dextran (60 mg/100 gm body weight). Mice were fasted for 4 h prior to euthanization. The FITC-dextran concentration in serum was determined using the standard curve of FITC-dextran in serum (excitation, 485 nm; emission, 525 nm; BMG LABTECH).
Myeloperoxidase (MPO) activity: The MPO activity in the colons was determined using the following procedure (KIM et al. (2012) “Investigating intestinal inflammation in DSS-induced model of IBD” J Vis Exp, Vol. 60, Article e3678 (6 pages)). Briefly, colon tissue was homogenized in 0.5% (w/v) hexadecyltrimethylammonium bromide (H6269; Sigma-aldrich, USA) in 50 mM PBS, pH 6.0. This homogenate underwent 3 freeze-thaw cycles and 10-15 sec sonication to obtain homogenous suspension. The supernatant from this suspension was collected after centrifiguaton at 13000×g for 20 min at 4° C. The supernatant (10 μl) was then added to 50 mM potassium phosphate buffer (pH 6.0) containing 0.167 mg/ml o-dianisidine (Sigma-Aldrich, USA) and 0.0005% H2O2(Sigma-Aldrich USA) and absorbance was taken at 450 nm (BMG, LABTECH) at 2 min interval. […]

Row | SMILES | AhR expression in colons of treated mice [1] | Nrf2 and HO1 in the colons of wild type mice [1] | expression of Cldn4 in the colons of mice [1] | Nrf2 and tight junction proteins (Cldn4, NQO1, Ocln, ZO1 and TJP3) in WT mice [1] | Nrf2 and tight junction proteins in Nrf2^−/− and AhR^−/− mice [1] | H&E analysis of colon sections (C57BL/6 mice) | TNBS-induced body weight loss (C57BL/6 mice) | TNBS-induced colon shortening (C57BL/6 mice) | TNBS-induced downregulation of Cldn4 in colons (C57BL/6 mice) | colon weight to length ratio (C57BL/6 mice) | disease activity index (DAI) score (C57BL/6 mice) | neutrophil infiltration (myeloperoxidase (MPO) activity) (C57BL/6 mice) | serum inflammatory markers IL-6, TNF-α, CXCL1 and IL-10 (C57BL/6 mice) | loss of body weight, single treatment (C57BL/6 mice) | TNBS-induced colitis, single treatment (C57BL/6 mice)
1 | Oc1ccc2c(c1)COc1cc(O)ccc1-2 [UAS03, 6H-benzo[c]chromene-3,8-diol] | upregulated | upregulated | elevated expression | upregulated | did not appear to induce | less tissue damage and inflammation scores | protected | protected from TNBS-induced colon shortening | protected from TNBS-induced downregulation of Cldn4 | reduced weight to length ratio | reduced | reduced neutrophil infiltration | reduced | did not reach significance | mitigated TNBS-induced colitis
2 | O=c1oc2cc(O)ccc2c2ccc(O)cc12 [UroA, 3,8-dihydroxy-6H-dibenzo[b,d]pyran-6-one] | upregulated | upregulated | elevated expression | upregulated | did not appear to induce | less tissue damage and inflammation scores | protected | protected from TNBS-induced colon shortening | protected from TNBS-induced downregulation of Cldn4 | reduced weight to length ratio | reduced | reduced neutrophil infiltration | reduced | did not reach significance | mitigated TNBS-induced colitis
